≈ marks a conversion by molar mass, not a printed value. Entries after “also recorded” stand apart in the source; their conditions may differ.
How the values were obtained:
[1] = test system: SKOV3 ovarian cancer cells; experiment: Formazan dye (MTT) in-vitro cell growth assay, SKOV3; format: cell-based
Description: Cells were plated at 0.5−5×10^3/well in 96-well plates. After adhesion, media ±drugs alone or in combination were added. Cell numbers were estimated after 3-5 days by using a colorimetric formazan dye assay (Biomedica, Vienna, Austria). […] Statistical analysis of data from drug combination treatment experiments was performed using one-factorial ANOVA followed by Scheffe-test.
Yellow MTT (3-(4,5-Dimethylthiazol-2-yl)-2,5-diphenyltetrazolium bromide, a tetrazole) is reduced to purple formazan in the mitochondria of living cells (see Mosmann, T., J. Immunol. Methods, 65(1-2): 55-63, 1983).

FASN mRNA = FASN mRNA expression by qRT-PCR in A2780 cells; format: cell-based, human
Text: (§1) RNA was extracted from the cells using TRI-REAGENT™ (Molecular Research Center, Cincinnati, Ohio) and subjected to reverse transcription—polymerase chain reaction (“RT-PCR”) using the TITAN ONE TUBE RT-PCR KIT™ system (Hoffmann-La Roche). Primers were: EGFR: 5′-[…]-3′ (SEQ ID NO:1) (forward, E1S) 5′-[…]-3′ (SEQ ID NO:2) (reverse, E1A); ErbB-2: 5′-[…]-3′ (SEQ ID NO:3) (forward, E2S2), 5′-[…]-3′ (SEQ ID NO:4) (reverse, E2A2); GAPDH: 5′-[…]-3′ (SEQ ID NO:5) (forward, GAPDH3S), 5′-[…]-3′ (SEQ ID NO:6) (reverse, GAPDH3A). Conditions for reverse transcription and amplification of the EGFR coding sequence were: 50° C., 30 minutes; 94° C., 2 minutes; 10 cycles (94° C., 30 seconds; 64.9° C., 30 seconds; 68° C., 90 seconds); 30 cycles (94° C., 30 seconds; 64.9° C., 30 seconds; 68° C., 90 seconds +5 seconds autoextension) and 68° C., 7 minutes. Conditions for ErbB2 and GAPDH were: 50° C., 30 minutes; 94° C., 2 minutes; 10 cycles (94° C., 30 seconds; 51° C., 30 seconds; 68° C., 45 seconds); 25 cycles (94° C., 30 seconds; 51° C., 30 seconds; 68° C., 45 seconds +5 seconds autoextension) and 68° C., 7 minutes. DNA products had the following sizes: EGFR: 1452 bp, ErbB2: 900 bp, GAPDH: 488 bp. Fragments were electrophoresed and stained with ethidium bromide.
(§2) Quantitative RT-PCR (“qRT-PCR”) was performed in the ABI PRISM 7000™ Sequence Detector (Applied Biosystems, Foster City, Calif.) using human EGFR, ErbB2, and FASN TaqMan® Gene Expression Assay systems (Applied Biosystems; Assay IDs: Hs00193306_m1, Hs00170433_m1, Hs00188012_m1) according to the manufacturer's instructions. β-actin and GAPDH (VIC™ and FAM labeled pre-developed TaqMan® Assay reagents, Applied Biosystems) were used as endogenous controls. EGFR, ErbB2, and FASN mRNA expression were calculated as described previously (Grunt, ibid).

EGFR mRNA = EGFR mRNA by qRT-PCR in SKBR3 breast cancer cells; format: cell-based; details: Homo sapiens, SK-BR-3, read-out: IC50, down-regulation of EGFR mRNA
Text: (§3) RNA was extracted from the cells using TRI-REAGENT™ (Molecular Research Center, Cincinnati, Ohio) and subjected to reverse transcription—polymerase chain reaction (“RT-PCR”) using the TITAN ONE TUBE RT-PCR KIT™ system (Hoffmann-La Roche). Primers were: EGFR: 5′-[…]-3′ (SEQ ID NO:1) (forward, E1S) 5′-[…]-3′ (SEQ ID NO:2) (reverse, E1A); ErbB-2: 5′-[…]-3′ (SEQ ID NO:3) (forward, E2S2), 5′-[…]-3′ (SEQ ID NO:4) (reverse, E2A2); GAPDH: 5′-[…]-3′ (SEQ ID NO:5) (forward, GAPDH3S), 5′-[…]-3′ (SEQ ID NO:6) (reverse, GAPDH3A). Conditions for reverse transcription and amplification of the EGFR coding sequence were: 50° C., 30 minutes; 94° C., 2 minutes; 10 cycles (94° C., 30 seconds; 64.9° C., 30 seconds; 68° C., 90 seconds); 30 cycles (94° C., 30 seconds; 64.9° C., 30 seconds; 68° C., 90 seconds +5 seconds autoextension) and 68° C., 7 minutes. […]
as §2

EGFR protein = EGFR protein and tyrosine phosphorylation by Western blot in A2780 cells; format: cell-based
ErbB2 mRNA [2] = experiment: ErbB2 mRNA by RT-PCR and qRT-PCR in A2780 cells; format: cell-based, human
Text: as §1, §2

ErbB2 protein = experiment: Total and phosphorylated ErbB2 protein by Western blot in A2780 cells; format: cell-based
Description: (§4) Cells plated in culture media containing 5% fetal calf serum at a density of 2.6×10^5 (SKOV3) or 6×10^5 (A2780) in 60 mm dishes (Corning, Corning, N.Y.) were treated with FASN inhibitor C75, with small-molecule ErbB RTK inhibitors (RTKIs), with the MEK1/2 antagonist U0126 or with the PI3K inhibitor LY294002 for the indicated times and at various concentrations. In some experiments cells were stimulated for 5 or 10 min with 100 ng/ml EGF (Sigma) before lysis in RIPA buffer (Grunt et al., Biochem Biophys Res Commun 329:1253-1259, 2005). Proteins (20 μg/lane) were subjected to SDS-PAGE, blotted onto PVDF membranes and immunostained (see Grunt, ibid) using the following antibodies: 2 μg/ml goat anti-pEGFR(Tyr1173) (sc-12351), 1 μg/ml rabbit anti-ErbB2 (C-18) (sc-284), 1 μg/ml rabbit anti-pErbB2(Tyr1248) (sc-12352-R) (all from Santa Cruz Biotechnology Inc., Santa Cruz, Calif.), rabbit anti-EGFR 1:1,000 (2232), rabbit anti-AKT 1:1,000 (9272), rabbit anti-pAKT(Ser473) 1:1,000 (9271), rabbit anti-pAKT(Thr308) 1:1,000 (9275), rabbit anti-pERK1/2(Thr202/Tyr204) 1:1,000 (9101) (all from Cell Signaling Technology), rabbit anti-ERK1/2 1:3,000 (06-182, Upstate Biotechnology Inc., Lake Placid, N.Y.), 0.5 μg/ml mouse monoclonal anti-FASN (610963, BD Biosciences, San Jose, Calif.), or 0.67 μg/ml goat anti-human actin (1-19, sc-1616, Santa Cruz Biotechnology). Secondary antibodies were peroxidase-tagged donkey-anti-rabbit IgG (V795A, Promega, Madison, Wis.) or donkey-anti-goat IgG (sc-2020, Santa Cruz Biotechnology) at 1:15,000, respectively, or chicken anti-mouse IgG (sc-2954, Santa Cruz Biotechnology) at 1:10,000. Detection was performed by enhanced chemiluminescence.

ErbB2 mRNA [3] = experiment: ErbB2 mRNA by qRT-PCR in SKBR3 breast cancer cells; format: cell-based, human
Text: as §3, §2

ERK1/2 = ERK1/2 phosphorylation and expression by Western blotting in A2780 and SKOV3 cells; format: cell-based
Description: as §4, with “Secondary antibodies were peroxidase-tagged donkey-anti-rabbit IgG (V795A, Promega, Madison, Wis.) or donkey-anti-goat IgG (sc-2020, Santa Cruz Biotechnology) at 1:15,000, respectively, or chicken anti-mouse IgG (sc-2954, Santa Cruz Biotechnology) at 1:10,000. Detection was performed by enhanced chemiluminescence.” left out

In the case of `C=C1C(=O)OC(CCCCCCCC)C1C(=O)O` (centres unmarked) [C75, tetrahydro-3-methylene-2-oxo-5-n-octyl-4-furancarboxylic acid], the inhibition at 10 µg/mL ([1]; Homo sapiens, SK-OV-3, 10 μg/ml C75 on its own) is reported as 50 to 55%, the “in vitro growth inhibition (in words)” value ([1]; MTT assay, single drug) is reported as “growth inhibitory activity” and the IC50 (FASN mRNA; Homo sapiens, 72 h, after 3 days, qRT-PCR, read-out: IC50, down-regulation of FASN mRNA expression) is reported as 5.25 µg/mL (≈ 20.6 µM). For the same compound, the “IT50 (time of exposure after which a 50% inhibition is obtained), FASN mRNA” value (FASN mRNA; at 7 μg/ml) was 21.5 h, the “FASN mRNA expression, effect in words” value (FASN mRNA; b102: within three days, pelitinib at doses as low as 3 μM) was “shut-down” and the IC50 (EGFR mRNA) was 7.5 µg/mL (≈ 29.5 µM). For the same compound, the “EGFR total protein, effect in words” value (EGFR protein) was “slowly and concordantly reduces”, the “EGFR tyrosine phosphorylation (activity), effect in words” value (EGFR protein) was “slowly and concordantly reduces” and the “IT50, EGFR phosphorylation” value (EGFR protein) was 20 h. The “IT50, EGFR protein” value (EGFR protein) was 29 h, the IC50 (EGFR protein; Homo sapiens, Western blot) was 3.6 µg/mL (≈ 14.2 µM) and the “ErbB2 mRNA, effect in words” value (ErbB2 mRNA [2]) was “not affected; also recorded: failed to diminish”. For the same compound, the “phosphorylated ErbB2 (pErbB2), effect in words” value (ErbB2 protein) was “downregulates; also recorded: deprivation”, the “total ErbB2 protein, effect in words” value (ErbB2 protein) was “downregulates; also recorded: deprivation” and the “ErbB2 mRNA, effect in words” value (ErbB2 mRNA [3]) was “dose-dependent decline; also recorded: dose-dependent down-regulation”. For the same compound, the “pERK1/2 levels, effect in words” value (ERK1/2) was “dose-dependently increase” and the “total ERK1/2 levels, effect in words” value (ERK1/2) was “concurrently decline”.
